Reference: patent US20120065063A1, “3-Aryl-4-(2,6-dimethylbenzylidene)isoxazol-5(4H)-ones as Fungicides” (Bayer CropScience AG, priority 2010, published 2012)

Key:
[1] = log P by HPLC on reversed-phase columns (EEC directive 79/831 Annex V.A8); format: physicochemical; conditions: for log P: acidic range pH 2.7, 0.1% aqueous formic acid/acetonitrile; for chromatographic logP: reversed-phase HPLC column (C18), preparation examples, acidic range pH 2.7, formic acid, read-out: log P (HCOOH)
Protocol: The log P values were measured according to EEC directive 79/831 Annex V.A8 by HPLC (High Performance Liquid Chromatography) on reversed-phase columns (C 18), using the method below:
The determination was carried out in the acidic range at pH 2.7 using the mobile phases 0.1% aqueous formic acid and acetonitrile; linear gradient from 10% acetonitrile to 95% acetonitrile.

Sphaerotheca fuliginea = test: Sphaerotheca test (cucumber)/protective; format: in vivo; conditions: protective, 500 ppm, evaluation 7 days after inoculation
Protocol: Sphaerotheca Test (Cucumber)/Protective [table] To produce an appropriate active compound formulation, 1 part by weight of active compound is mixed with the specified amounts of solvent and emulsifier, and the concentrate is diluted with water to the desired concentration. To test for protective activity, young cucumber plants are sprayed with the preparation of active compound at the stated application rate. 1 day after the treatment, the plants are inoculated with a spore suspension of Sphaerotheca fuliginea. The plants are then placed in a greenhouse at 70% relative atmospheric humidity and a temperature of 23° C.

[2] = system: Blumeria graminis f.sp. tritici; test: Blumeria test (wheat)/protective; format: in vivo; conditions: protective, 1000 ppm, evaluation 7 days after inoculation
Protocol: Blumeria Test (Wheat)/Protective [table] To produce an appropriate active compound formulation, I part by weight of active compound is mixed with the specified amounts of solvent and emulsifier, and the concentrate is diluted with water to the desired concentration. To test for protective activity, young plants are sprayed with the preparation of active compound at the stated application rate. After the spray coating has dried on, the plants are dusted with spores of Blumeria graminis f.sp. tritici.

Alternaria solani = test: Alternaria test (tomato)/protective; format: in vivo; conditions: protective, 500 ppm, evaluation 7 days after inoculation
Protocol: Alternaria Test (Tomato)/Protective [table] To produce an appropriate active compound formulation, 1 part by weight of active compound is mixed with the specified amounts of solvent and emulsifier, and the concentrate is diluted with water to the desired concentration. To test for protective activity, young tomato plants are sprayed with the preparation of active compound at the stated application rate. 1 day after the treatment, the plants are inoculated with a spore suspension of Alternaria solani and then remain at 100% relative humidity and 20° C. for 24 h. The plants then remain at 96% relative atmospheric humidity and a temperature of 20° C.

| log P [1] | SMILES | other results |
| --- | --- | --- |
| 4.12 | COc1ccc(F)cc1C1=NOC(=O)C1=Cc1c(C)cc(C)cc1C [Compound I-17] |  |
| 3.96 | Cc1cccc(C)c1C=C1C(=O)ON=C1c1cc(F)ccc1Cl [Compound I-39] |  |
| 4.21 | COc1cc(OC)cc(C2=NOC(=O)C2=Cc2c(C)cc(C)cc2C)c1 [Compound I-53] |  |
| 4.12 | Cc1cc(C)c(C=C2C(=O)ON=C2c2cc(F)ccc2F)c(C)c1 [Compound I-36] |  |
| 4.15 | Cc1cc(C)c(C=C2C(=O)ON=C2c2cccc(F)c2)c(C)c1 [Compound I-55] |  |
| 3.40 | Cc1cccc(C)c1C=C1C(=O)ON=C1c1ccccc1[N+](=O)[O-] [Compound I-4] |  |
| 5.01 | Cc1cc(C)c(C=C2C(=O)ON=C2c2cc(Cl)cc(Cl)c2)c(C)c1 [Compound I-58] |  |
|  | O=C1CC(c2ccc(F)cc2)=NO1 [3-(4-fluorophenyl)isoxazol-5(4H)-one] | chromatographic logP [1]: 1.74 |
|  | O=C1ON=C(c2ccccc2)C1=Cc1ccccc1 [Compound A-1] | efficacy (Sphaerotheca fuliginea): 30%; efficacy [2]: 29%; efficacy (Alternaria solani): 0% |
| 4.62 | Cc1cc(C)c(C=C2C(=O)ON=C2c2ccc(C(F)(F)F)cc2)c(C)c1 [Compound I-59] |  |
| 3.97 | Cc1cccc(C)c1C=C1C(=O)ON=C1c1ccccc1Cl [Compound I-29] |  |
| 4.09 | COc1ccc(C2=NOC(=O)C2=Cc2c(C)cc(C)cc2C)cc1OC [Compound I-54] |  |
| 4.94 | Cc1cc(C)c(C=C2C(=O)ON=C2c2ccc(Cl)cc2Cl)c(C)c1 [Compound I-35] |  |
| 4.49 | Cc1cc(C)cc(C2=NOC(=O)C2=Cc2c(C)cccc2C)c1 [Compound I-51] |  |
| 3.85 | Cc1cc(C)c(C=C2C(=O)ON=C2c2cccc([N+](=O)[O-])c2)c(C)c1 [Compound I-46] |  |
| 4.00 | COc1ccc(C2=NOC(=O)C2=Cc2c(C)cc(C)cc2C)cc1 [Compound I-67] |  |
| 5.05 | Cc1cc(C)c(C=C2C(=O)ON=C2c2cc(Br)ccc2Br)c(C)c1 [Compound I-43] |  |
| 3.99 | Cc1cc(C)c(C=C2C(=O)ON=C2c2ccc([N+](=O)[O-])cc2)c(C)c1 [Compound I-65] |  |
| 4.57 | Cc1cccc(C)c1C=C1C(=O)ON=C1c1cc(Br)ccc1Br [Compound I-44] |  |
| 4.34 | Cc1cc(C)c(C=C2C(=O)ON=C2c2ccccc2C(F)(F)F)c(C)c1 [Compound I-1] |  |

| log P [1] | SMILES | other results |
| --- | --- | --- |
| 4.51 | Cc1cccc(C)c1C=C1C(=O)ON=C1c1ccccc1OCc1ccccc1 [Compound I-31] |  |
| 4.80 | Cc1cc(C)c(C=C2C(=O)ON=C2c2cccc(Cl)c2Cl)c(C)c1 [Compound I-33] |  |
| 4.86 | Cc1cc(C)c(C=C2C(=O)ON=C2c2ccccc2OCc2ccccc2)c(C)c1 [Compound I-30] |  |
| 4.71 | Cc1cc(C)c(C=C2C(=O)ON=C2c2cc(Cl)ccc2Cl)c(C)c1 [Compound I-40] |  |
|  | COc1ccccc1C1=NOC(=O)/C1=C\c1c(C)cccc1C [Compound I-18, 4-(2,6-dimethylbenzylidene)-3-(2-methoxyphenyl)-1,2-oxazol-5(4H)-one] | chromatographic logP [1]: 3.69 |
| 4.81 | Cc1cc(C)c(C=C2C(=O)ON=C2c2ccc(C)c(C)c2)c(C)c1 [Compound I-49] |  |
|  | COC(=O)CC(=O)c1cccc(C(F)(F)F)c1 [methyl 3-trifluoromethylbenzoylacetate] | chromatographic logP [1]: 2.57 |
| 3.75 | COc1ccc(F)cc1C1=NOC(=O)C1=Cc1c(C)cccc1C [Compound I-21] |  |
| 3.77 | Cc1cccc(C)c1C=C1C(=O)ON=C1c1cc(F)ccc1F [Compound I-37] |  |
| 4.46 | CCOc1ccc(C2=NOC(=O)C2=Cc2c(C)cc(C)cc2C)cc1 [Compound I-69] |  |
| 4.42 | Cc1cc(C)c(C=C2C(=O)ON=C2c2cc(F)ccc2Cl)c(C)c1 [Compound I-38] |  |
| 4.59 | Cc1cc(C)c(C=C2C(=O)ON=C2c2ccccc2OC(F)(F)F)c(C)c1 [Compound I-2] |  |
| 4.41 | Cc1ccc(C2=NOC(=O)C2=Cc2c(C)cccc2C)cc1C [Compound I-50] |  |
| 4.95 | Cc1cc(C)c(C=C2C(=O)ON=C2c2ccc(Cl)c(Cl)c2)c(C)c1 [Compound I-57] |  |
|  | Cc1cc(C)c(/C=C2\C(=O)ON=C2c2ccc(F)cc2)c(C)c1 [Compound I-68, 4-(2,4,6-trimethylbenzylidene)-3-(4-fluorophenyl)-1,2-oxazol-5(4H)-one] | chromatographic logP [1]: 4.08 |
| 4.08 | COc1cccc(C2=NOC(=O)C2=Cc2c(C)cc(C)cc2C)c1OC [Compound I-16] |  |
| 4.44 | Cc1ccc(C2=NOC(=O)C2=Cc2c(C)cc(C)cc2C)cc1 [Compound I-66] |  |
| 5.01 | Cc1cc(C)c(C=C2C(=O)ON=C2c2ccc(OCc3ccccc3)cc2)c(C)c1 [Compound I-64] |  |
|  | O=C1CC(c2cccc(C(F)(F)F)c2)=NO1 [3-(3-trifluoromethylphenyl)isoxazol-5(4H)-one] | chromatographic logP [1]: 2.4 |
| 4.88 | Cc1cc(C)cc(C2=NOC(=O)C2=Cc2c(C)cc(C)cc2C)c1 [Compound I-48] |  |

| log P [1] | SMILES | other results |
| --- | --- | --- |
| 4.01 | Cc1cc(C)c(C=C2C(=O)ON=C2c2ccccc2)c(C)c1 [Compound I-13] |  |
| 3.76 | Cc1cc(C)c(C=C2C(=O)ON=C2c2ccccc2[N+](=O)[O-])c(C)c1 [Compound I-3] |  |
| 3.73 | COc1cccc(C2=NOC(=O)C2=Cc2c(C)cccc2C)c1OC [Compound I-20] |  |
|  | COc1ccccc1C1=NOC(=O)C1 [3-(2-methoxyphenyl)isoxazol-5(4H)-one] | chromatographic logP [1]: 1.67 |
| 5.16 | Cc1cc(C)c(C=C2C(=O)ON=C2c2ccc(-c3ccccc3)cc2)c(C)c1 [Compound I-63] |  |
| 4.48 | Cc1cc(C)c(C=C2C(=O)ON=C2c2cccc(Cl)c2)c(C)c1 [Compound I-56] |  |
|  | Cc1cc(C)c(/C=C2\C(=O)ON=C2c2cccc(C(F)(F)F)c2)c(C)c1 [Compound 1-59, 4-(2,4,6-trimethylbenzylidene)-3-(3-trifluoromethylphenyl)-1,2-oxazol-5(4H)-one] | chromatographic logP [1]: 4.62 |
| 4.45 | Cc1cccc(C2=NOC(=O)C2=Cc2c(C)cc(C)cc2C)c1 [Compound I-47] |  |
| 4.83 | Cc1cc(C)c(C=C2C(=O)ON=C2c2cc(Br)ccc2Cl)c(C)c1 [Compound I-41] |  |
| 4.62 | Cc1cc(C)c(C=C2C(=O)ON=C2c2cccc(C(F)(F)F)c2)c(C)c1 [Compound I-45] |  |
| 4.46 | Cc1cccc(C)c1C=C1C(=O)ON=C1c1cc(Br)ccc1Cl [Compound I-42] |  |
| 4.73 | Cc1cc(C)c(C=C2C(=O)ON=C2c2ccc(OC(F)(F)F)cc2)c(C)c1 [Compound I-60] |  |
| 5.43 | Cc1cc(C)c(C=C2C(=O)ON=C2c2ccc(C(C)(C)C)cc2)c(C)c1 [Compound I-61] |  |
| 4.68 | Cc1cc(C)c(C=C2C(=O)ON=C2c2cccc(C)c2C)c(C)c1 [Compound I-8] |  |
| 3.95 | COc1cccc(OC)c1C1=NOC(=O)C1=Cc1c(C)cc(C)cc1C [Compound I-15] |  |
| 4.27 | Cc1cc(C)c(C=C2C(=O)ON=C2c2ccccc2SC(F)F)c(C)c1 [Compound I-32] |  |
| 4.26 | Cc1cccc(C2=NOC(=O)C2=Cc2c(C)cccc2C)c1C [Compound I-12] |  |
| 4.07 | Cc1cc(C)c(C=C2C(=O)ON=C2c2ccccc2F)c(C)c1 [Compound I-23] |  |
| 4.70 | Cc1cc(C)c(C=C2C(=O)ON=C2c2ccc(OC(C)C)cc2)c(C)c1 [Compound I-62] |  |

| SMILES | log P [1] | other results |
| --- | --- | --- |
| Cc1cc(C)c(C=C2C(=O)ON=C2c2ccccc2Cl)c(C)c1 [Compound I-28] | 4.38 |  |
| CCOc1ccccc1C1=NOC(=O)C1=Cc1c(C)cccc1C [Compound I-27] | 4.00 |  |
| Cc1ccccc1C1=NOC(=O)C1=Cc1c(C)cccc1C [Compound I-9] | 3.95 |  |
| Cc1cccc(C)c1C=C1C(=O)ON=C1c1cccc(Cl)c1Cl [Compound I-34] | 4.31 |  |
| Cc1cc(C)c(C=C2C(=O)ON=C2c2ccccc2I)c(C)c1 [Compound I-22] | 4.51 |  |
| CCOc1ccccc1C1=NOC(=O)C1=Cc1c(C)cc(C)cc1C [Compound I-26] | 4.42 |  |
| Cc1cccc(C)c1C=C1C(=O)ON=C1c1ccccc1 [Compound I-52] | 3.68 |  |
